Assay results taken from ChEMBL document CHEMBL4840335, “Rational Design and Development of Novel CDK9 Inhibitors for the Treatment of Acute Myeloid Leukemia” (J Med Chem, 2021).
pIC50: −log10 of the molar value. Active and inactive are the calls of the source. No cut-off for these calls is given here.

Tests used:
[1] = molecular target: CDK9/cyclin T1 (Homo sapiens, UniProt P50750); test: Inhibition of CDK9/cyclin T1 (unknown origin) incubated for 2 hrs in presence of ATP by FRET based LANCE assay; assay type: protein-complex assay
[2] = molecular target: Tyrosine-protein kinase receptor UFO (Homo sapiens, UniProt P30530); test: Inhibition of AXL (unknown origin)
[3] = molecular target: Hepatocyte growth factor receptor (Homo sapiens, UniProt P08581); test: Inhibition of Met (unknown origin)
[4] = molecular target: ALK tyrosine kinase receptor (Homo sapiens, UniProt Q9UM73); test: Inhibition of ALK (unknown origin)
[5] = molecular target: Tyrosine-protein kinase receptor TYRO3 (Homo sapiens, UniProt Q06418); test: Inhibition of TYRO3 (unknown origin)
[6] = molecular target: Fibroblast growth factor receptor 2 (Homo sapiens, UniProt P21802); test: Inhibition of FGFR2 (unknown origin)
[7] = molecular target: Fibroblast growth factor receptor 3 (Homo sapiens, UniProt P22607); test: Inhibition of FGFR3 (unknown origin)
[8] = molecular target: Fibroblast growth factor receptor 4 (Homo sapiens, UniProt P22455); test: Inhibition of FGFR4 (unknown origin)
[9] = molecular target: Vascular endothelial growth factor receptor 1 (Homo sapiens, UniProt P17948); test: Inhibition of VEGFR1 (unknown origin)
[10] = molecular target: Epidermal growth factor receptor (Homo sapiens, UniProt P00533); test: Inhibition of EGFR (unknown origin)
[11] = molecular target: Receptor tyrosine-protein kinase erbB-2 (Homo sapiens, UniProt P04626); test: Inhibition of ErbB2 (unknown origin)
[12] = molecular target: Receptor tyrosine-protein kinase erbB-4 (Homo sapiens, UniProt Q15303); test: Inhibition of ErbB4 (unknown origin)
[13] = molecular target: Proto-oncogene tyrosine-protein kinase Src (Homo sapiens, UniProt P12931); test: Inhibition of SRC (unknown origin)
[14] = molecular target: Tyrosine-protein kinase ABL1 (Homo sapiens, UniProt P00519); test: Inhibition of ABL (unknown origin)
[15] = molecular target: Ephrin type-A receptor 2 (Homo sapiens, UniProt P29317); test: Inhibition of EPHA2 (unknown origin)
[16] = molecular target: Insulin-like growth factor 1 receptor (Homo sapiens, UniProt P08069); test: Inhibition of IGF1R (unknown origin)
[17] = molecular target: Insulin receptor (Homo sapiens, UniProt P06213); test: Inhibition of IR (unknown origin)
[18] = molecular target: Vascular endothelial growth factor receptor 2 (Homo sapiens, UniProt P35968); test: Inhibition of KDR (unknown origin)
[19] = molecular target: Tyrosine-protein kinase BTK (Homo sapiens, UniProt Q06187); test: Inhibition of BTK (unknown origin)
[20] = molecular target: Serine/threonine-protein kinase PAK 1 (Homo sapiens, UniProt Q13153); test: Inhibition of PAK1 (unknown origin)
[21] = molecular target: Aurora kinase A (Homo sapiens, UniProt O14965); test: Inhibition of AURKA (unknown origin)
[22] = test system: JeKo-1; test: Antiproliferative activity against human JeKo-1 cells assessed as reduction in cell proliferation measured after 3 to 7 days by MTS assay; assay type: functional, cell-based
[23] = test system: OCI-Ly10; test: Antiproliferative activity against human OCILY10 cells assessed as reduction in cell proliferation measured after 3 to 7 days by MTS assay; assay type: functional, cell-based
[24] = test system: TMD8; test: Antiproliferative activity against human TMD8 cells assessed as reduction in cell proliferation measured after 3 to 7 days by MTS assay; assay type: functional, cell-based
[25] = test system: MM1.S; test: Antiproliferative activity against human MM1.S cells assessed as reduction in cell proliferation measured after 3 to 7 days by MTS assay; assay type: functional, cell-based
[26] = test system: RPMI-8226; test: Antiproliferative activity against human RPMI-8226 cells assessed as reduction in cell proliferation measured after 3 to 7 days by MTS assay; assay type: functional, cell-based
[27] = test system: Kasumi 1; test: Antiproliferative activity against human Kasumi 1 cells assessed as reduction in cell proliferation measured after 3 to 7 days by MTS assay; assay type: functional, cell-based
[28] = test system: HL-60; test: Antiproliferative activity against human HL-60 cells assessed as reduction in cell proliferation measured after 3 to 7 days by MTS assay; assay type: functional, cell-based
[29] = test system: MV4-11; test: Induction of apoptosis in human MV4-11 cells assessed as downregulation of BCL2 at 1 to 10 uM measured after 12 hrs by Western blot analysis; assay type: functional, cell-based; details: dose 1-10 µM
[30] = Tmax in ICR mouse at 20 mg/kg, po measured up to 24 hrs; assay type: ADME, organism-based; details: in vivo
[31] = test system: MV4-11; test: Induction of apoptosis in human MV4-11 cells assessed as activation of caspase-3 at 5 to 50 nM measured after 24 hrs by Western blot analysis; assay type: functional, cell-based; details: dose 5-50 nM
[32] = test system: MV4-11; test: Induction of apoptosis in human MV4-11 cells assessed as activation of cleaved PARP at 5 to 50 nM measured after 24 hrs by Western blot analysis; assay type: functional, cell-based; details: dose 5-50 nM
[33] = test system: MV4-11; test: Induction of apoptosis in human MV4-11 cells assessed as live cells at 50 nM measured after 24 hrs by annexinV-FITC/propidium iodide staining based flow cytometry (reference value: 95.14 %); assay type: functional
[34] = test system: MV4-11; test: Induction of apoptosis in human MV4-11 cells assessed as early apoptotic cells at 50 nM measured after 24 hrs by annexinV-FITC/propidium iodide staining based flow cytometry (reference value: 0.79 %); assay type: functional
[35] = test system: MV4-11; test: Induction of apoptosis in human MV4-11 cells assessed as necrotic cells at 50 nM measured after 24 hrs by annexinV-FITC/propidium iodide staining based flow cytometry (reference value: 1.03 %); assay type: functional
[36] = Cmax in ICR mouse at 20 mg/kg, po measured up to 24 hrs; assay type: ADME, organism-based; design: route oral, dose 20 mg/kg, time <=24; details: in vivo
[37] = AUClast in ICR mouse at 20 mg/kg, po measured up to 24 hrs; assay type: ADME, organism-based; design: route oral, dose 20 mg/kg, time <=24; details: in vivo
[38] = Observed AUC infinity in ICR mouse at 20 mg/kg, po measured up to 24 hrs; assay type: ADME, organism-based; design: route oral, dose 20 mg/kg, time <=24; details: in vivo
[39] = Half life in ICR mouse at 20 mg/kg, po measured up to 24 hrs; assay type: ADME, organism-based; details: in vivo
[40] = AUClast in ICR mouse at 2 mg/kg, iv measured up to 24 hrs; assay type: ADME, organism-based; design: route intravenous, dose 2 mg/kg, time <=24; details: in vivo
[41] = Observed clearance in ICR mouse at 2 mg/kg, iv measured up to 24 hrs; assay type: ADME, organism-based; details: in vivo
[42] = test system: MV4-11; test: Antitumor activity against human MV4-11 cells xenografted in Nu/Nu mouse assessed as change in tumor volume at 7.5 mg/kg, po administered for 21 consecutive days by digital caliper method and measured on day 22 (reference value: 127 +/- 16 mm3); assay type: functional; details: time 22 day
[43] = test system: MV4-11; test: Antitumor activity against human MV4-11 cells xenografted in Nu/Nu mouse assessed as inhibition of tumor growth at 7.5 mg/kg, po administered for 21 consecutive days by digital caliper method relative to control; assay type: functional; details: MV4-11, po, 504 h, time 21 day
[44] = Toxicity in Nu/Nu mouse xenografted with human MV4-11 cells assessed as change in body weight at 7.5 mg/kg, po administered for 21 consecutive days and measured on day 22 (reference value: 23.9 +/- 0.7 g); assay type: organism-based; details: in vivo, 528 h, time 22 day

Chain of ALK tyrosine kinase receptor (Q9UM73 whole entry): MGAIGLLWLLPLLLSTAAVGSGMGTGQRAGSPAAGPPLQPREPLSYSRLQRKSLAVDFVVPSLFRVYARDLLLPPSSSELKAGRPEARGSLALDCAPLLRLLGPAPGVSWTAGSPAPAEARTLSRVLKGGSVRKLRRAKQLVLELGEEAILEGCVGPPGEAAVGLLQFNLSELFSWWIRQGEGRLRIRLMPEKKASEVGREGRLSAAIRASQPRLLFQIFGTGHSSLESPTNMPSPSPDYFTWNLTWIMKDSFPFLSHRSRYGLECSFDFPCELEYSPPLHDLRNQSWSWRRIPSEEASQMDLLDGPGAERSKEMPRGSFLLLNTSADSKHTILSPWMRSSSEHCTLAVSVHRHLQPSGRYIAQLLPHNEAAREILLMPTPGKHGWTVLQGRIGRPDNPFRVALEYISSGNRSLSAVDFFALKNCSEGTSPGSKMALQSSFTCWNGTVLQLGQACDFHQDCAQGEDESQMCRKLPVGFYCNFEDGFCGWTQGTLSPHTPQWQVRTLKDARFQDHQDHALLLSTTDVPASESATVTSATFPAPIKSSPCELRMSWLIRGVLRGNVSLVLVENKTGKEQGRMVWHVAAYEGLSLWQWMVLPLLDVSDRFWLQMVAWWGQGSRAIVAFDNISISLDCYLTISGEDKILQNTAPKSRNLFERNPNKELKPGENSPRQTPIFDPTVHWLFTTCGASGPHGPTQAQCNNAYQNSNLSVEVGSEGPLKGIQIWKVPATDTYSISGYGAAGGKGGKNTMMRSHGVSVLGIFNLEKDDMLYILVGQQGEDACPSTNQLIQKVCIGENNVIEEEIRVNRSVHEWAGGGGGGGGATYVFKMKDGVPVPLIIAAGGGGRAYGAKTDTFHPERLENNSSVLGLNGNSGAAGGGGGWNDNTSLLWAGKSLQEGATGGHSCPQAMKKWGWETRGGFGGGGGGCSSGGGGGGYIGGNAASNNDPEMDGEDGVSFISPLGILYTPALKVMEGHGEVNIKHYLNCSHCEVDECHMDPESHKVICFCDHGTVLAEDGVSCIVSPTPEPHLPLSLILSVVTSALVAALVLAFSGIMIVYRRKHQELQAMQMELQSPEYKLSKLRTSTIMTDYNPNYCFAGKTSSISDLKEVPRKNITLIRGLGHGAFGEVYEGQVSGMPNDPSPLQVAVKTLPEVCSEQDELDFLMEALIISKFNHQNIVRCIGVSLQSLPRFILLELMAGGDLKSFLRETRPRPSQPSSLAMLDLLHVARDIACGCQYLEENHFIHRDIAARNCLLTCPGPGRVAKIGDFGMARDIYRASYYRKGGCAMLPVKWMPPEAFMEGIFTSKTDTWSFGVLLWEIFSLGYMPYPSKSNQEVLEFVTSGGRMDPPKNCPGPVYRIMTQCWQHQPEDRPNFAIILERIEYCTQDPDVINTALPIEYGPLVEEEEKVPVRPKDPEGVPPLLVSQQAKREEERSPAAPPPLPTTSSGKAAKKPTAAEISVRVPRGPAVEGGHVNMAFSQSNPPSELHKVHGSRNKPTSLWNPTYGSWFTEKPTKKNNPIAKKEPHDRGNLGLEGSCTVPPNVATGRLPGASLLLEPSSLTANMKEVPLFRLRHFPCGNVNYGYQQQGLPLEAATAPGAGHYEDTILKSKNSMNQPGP
Chain of Tyrosine-protein kinase BTK (Q06187 whole entry): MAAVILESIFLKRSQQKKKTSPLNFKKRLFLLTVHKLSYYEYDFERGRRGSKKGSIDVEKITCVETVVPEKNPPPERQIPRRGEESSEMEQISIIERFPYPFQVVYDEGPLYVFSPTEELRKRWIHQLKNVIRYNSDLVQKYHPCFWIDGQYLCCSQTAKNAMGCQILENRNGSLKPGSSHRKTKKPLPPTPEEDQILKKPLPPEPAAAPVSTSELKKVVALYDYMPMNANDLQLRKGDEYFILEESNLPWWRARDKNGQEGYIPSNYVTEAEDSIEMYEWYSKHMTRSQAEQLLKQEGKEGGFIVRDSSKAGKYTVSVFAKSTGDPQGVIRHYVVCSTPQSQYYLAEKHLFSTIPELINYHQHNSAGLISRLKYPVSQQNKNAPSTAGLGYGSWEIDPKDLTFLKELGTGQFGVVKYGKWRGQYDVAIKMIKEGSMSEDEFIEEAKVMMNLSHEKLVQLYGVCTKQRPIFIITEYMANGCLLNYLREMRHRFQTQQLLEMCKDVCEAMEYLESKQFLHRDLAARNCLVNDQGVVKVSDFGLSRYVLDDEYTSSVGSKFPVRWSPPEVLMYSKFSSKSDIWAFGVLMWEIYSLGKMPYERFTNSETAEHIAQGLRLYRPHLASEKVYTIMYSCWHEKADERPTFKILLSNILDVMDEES
Chain of Tyrosine-protein kinase receptor UFO (P30530 whole entry): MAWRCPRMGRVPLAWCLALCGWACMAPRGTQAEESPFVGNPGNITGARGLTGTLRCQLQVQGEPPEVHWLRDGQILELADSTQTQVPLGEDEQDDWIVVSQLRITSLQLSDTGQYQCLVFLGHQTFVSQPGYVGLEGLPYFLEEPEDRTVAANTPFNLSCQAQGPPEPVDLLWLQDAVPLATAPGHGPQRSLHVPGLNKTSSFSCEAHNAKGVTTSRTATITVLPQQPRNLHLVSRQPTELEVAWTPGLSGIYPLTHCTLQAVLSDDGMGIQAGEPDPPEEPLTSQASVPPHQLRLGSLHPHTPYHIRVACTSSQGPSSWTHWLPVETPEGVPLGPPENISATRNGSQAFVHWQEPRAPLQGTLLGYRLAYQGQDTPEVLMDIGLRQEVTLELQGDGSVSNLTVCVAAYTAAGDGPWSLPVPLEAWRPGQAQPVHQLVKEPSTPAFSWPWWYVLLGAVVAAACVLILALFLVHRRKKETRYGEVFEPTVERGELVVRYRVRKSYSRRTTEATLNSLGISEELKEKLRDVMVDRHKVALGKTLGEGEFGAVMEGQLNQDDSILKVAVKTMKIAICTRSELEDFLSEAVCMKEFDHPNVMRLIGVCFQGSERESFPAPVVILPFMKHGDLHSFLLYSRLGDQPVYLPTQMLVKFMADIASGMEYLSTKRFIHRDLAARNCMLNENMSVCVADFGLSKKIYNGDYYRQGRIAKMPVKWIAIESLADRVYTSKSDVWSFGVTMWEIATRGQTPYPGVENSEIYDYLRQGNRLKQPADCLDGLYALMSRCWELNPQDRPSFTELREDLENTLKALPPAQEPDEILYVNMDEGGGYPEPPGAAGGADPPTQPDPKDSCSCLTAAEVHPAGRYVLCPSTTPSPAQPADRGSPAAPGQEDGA
Chain of Ephrin type-A receptor 2 (P29317 whole entry): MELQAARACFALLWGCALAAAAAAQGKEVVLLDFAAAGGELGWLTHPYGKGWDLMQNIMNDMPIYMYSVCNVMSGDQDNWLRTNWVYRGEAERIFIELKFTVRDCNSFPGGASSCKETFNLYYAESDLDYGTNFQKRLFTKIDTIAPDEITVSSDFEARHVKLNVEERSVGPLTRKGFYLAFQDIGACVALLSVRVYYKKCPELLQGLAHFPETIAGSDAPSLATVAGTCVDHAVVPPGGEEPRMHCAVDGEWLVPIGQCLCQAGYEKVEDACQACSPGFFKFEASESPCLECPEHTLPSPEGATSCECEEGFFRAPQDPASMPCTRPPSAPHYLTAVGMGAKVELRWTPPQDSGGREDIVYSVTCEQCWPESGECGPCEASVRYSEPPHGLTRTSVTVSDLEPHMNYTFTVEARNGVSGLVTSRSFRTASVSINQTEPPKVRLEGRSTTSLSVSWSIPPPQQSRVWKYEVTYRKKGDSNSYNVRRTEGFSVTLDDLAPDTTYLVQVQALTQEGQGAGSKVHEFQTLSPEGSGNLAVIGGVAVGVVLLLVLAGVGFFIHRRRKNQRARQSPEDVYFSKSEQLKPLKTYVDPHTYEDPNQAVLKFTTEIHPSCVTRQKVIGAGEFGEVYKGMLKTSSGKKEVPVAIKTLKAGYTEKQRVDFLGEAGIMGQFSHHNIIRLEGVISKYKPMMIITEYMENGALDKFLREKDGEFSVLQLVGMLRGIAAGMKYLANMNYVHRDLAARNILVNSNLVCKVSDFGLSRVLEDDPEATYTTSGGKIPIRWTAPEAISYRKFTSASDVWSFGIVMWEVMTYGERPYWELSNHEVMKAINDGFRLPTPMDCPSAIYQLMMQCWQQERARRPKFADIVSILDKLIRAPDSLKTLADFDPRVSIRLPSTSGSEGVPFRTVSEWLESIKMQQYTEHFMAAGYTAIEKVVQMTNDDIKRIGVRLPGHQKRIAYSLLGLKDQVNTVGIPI
Chain of Proto-oncogene tyrosine-protein kinase Src (P12931 2-536 limits assumed): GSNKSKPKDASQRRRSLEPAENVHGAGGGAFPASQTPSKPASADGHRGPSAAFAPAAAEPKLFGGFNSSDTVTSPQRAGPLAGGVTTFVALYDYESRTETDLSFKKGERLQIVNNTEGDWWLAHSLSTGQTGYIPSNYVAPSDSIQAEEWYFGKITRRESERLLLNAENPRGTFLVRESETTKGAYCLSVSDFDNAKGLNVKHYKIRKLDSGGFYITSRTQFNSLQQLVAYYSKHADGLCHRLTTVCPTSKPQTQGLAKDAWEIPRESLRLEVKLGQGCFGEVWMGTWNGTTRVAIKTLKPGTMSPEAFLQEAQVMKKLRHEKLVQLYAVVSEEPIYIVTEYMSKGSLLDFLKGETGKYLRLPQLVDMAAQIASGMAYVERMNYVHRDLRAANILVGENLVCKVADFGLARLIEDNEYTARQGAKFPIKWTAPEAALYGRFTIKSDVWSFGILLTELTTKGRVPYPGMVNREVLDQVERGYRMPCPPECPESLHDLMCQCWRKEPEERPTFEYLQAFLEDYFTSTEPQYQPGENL
Chain of Aurora kinase A (O14965 whole entry): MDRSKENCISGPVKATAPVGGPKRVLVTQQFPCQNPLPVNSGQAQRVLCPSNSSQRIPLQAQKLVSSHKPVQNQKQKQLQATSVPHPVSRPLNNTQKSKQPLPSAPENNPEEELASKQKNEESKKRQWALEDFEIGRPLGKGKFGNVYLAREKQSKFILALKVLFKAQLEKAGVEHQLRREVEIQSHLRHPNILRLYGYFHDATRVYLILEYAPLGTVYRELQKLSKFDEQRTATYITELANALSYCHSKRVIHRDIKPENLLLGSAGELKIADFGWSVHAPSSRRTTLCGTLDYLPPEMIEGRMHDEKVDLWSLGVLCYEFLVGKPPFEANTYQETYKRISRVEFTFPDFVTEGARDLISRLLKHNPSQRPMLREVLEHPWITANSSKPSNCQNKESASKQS

pIC50 [1]: 8.27
pIC50 [2]: < 6.00
pIC50 [3]: < 6.00
pIC50 [4]: < 6.00
pIC50 [5]: < 6.00
pIC50 [6]: < 6.00
pIC50 [7]: < 6.00
pIC50 [8]: < 6.00
pIC50 [9]: < 6.00
pIC50 [10]: < 6.00
pIC50 [11]: < 6.00
pIC50 [12]: < 6.00
pIC50 [13]: < 6.00
pIC50 [14]: < 6.00
pIC50 [15]: < 6.00
pIC50 [16]: < 6.00
pIC50 [17]: < 6.00
pIC50 [18]: < 6.00
pIC50 [19]: < 6.00
pIC50 [20]: < 6.00
pIC50 [21]: < 6.00
pIC50 [23]: 8.49
pIC50 [25]: 7.89
pIC50 [26]: 8.27
pIC50 [28]: 7.36
Tmax [30]: 4.98 min
Cmax [36]: 1570 ng/mL
AUC(0-t) at 24 h [37]: 1760 ng·h/mL
AUC(0-inf) [38]: 1880 ng·h/mL
half-life [39]: 8.02 h
AUC(0-t) at 24 h [40]: 553 ng·h/mL
clearance [41]: 60 mL/min/kg
SMILES: Cc1n[nH]c2ccc(-c3cc(N[C@@H](CO)c4ccccc4)cnc3Cl)cc12
pIC50 [22]: 7.34
pIC50 [24]: 7.34
pIC50 [27]: 7.68
Activity [29]: inactive
Activity [31]: Active
Activity [32]: Active
Activity [33]: 76.29%
Activity [34]: 3.23%
Activity [35]: 3.59%
Activity [42]: 371 mm3
inhibition in vivo at 7.5 mg/kg [43]: 77.4%
Activity [44]: 22.1 g
